From article PMC6411103, “TAK-071, a muscarinic M1 receptor positive allosteric modulator, attenuates scopolamine-induced quantitative electroencephalogram power spectral changes in cynomolgus monkeys” (PLoS ONE, 2019)
Counter-ions that a name gives are not always drawn. Like-named read-outs stand apart in the source and are kept apart here.

How the values were obtained:
[1] = set-up: method as in PMID 26116126; conditions: direct radiolabeling; cited from earlier work
[2] = set-up: method as in PMID 29563325; conditions: cited from earlier work
rats = system: rats; set-up: method as in PMID 30089885; conditions: TAK-071 0.3 mg/kg; cited from earlier work
cynomolgus monkeys [3] = assay: qEEG power spectra after treatment with drug alone (radio-telemetry EEG); format: in vivo, cynomolgus monkeys (Macaca fascicularis)
Procedure: (§1) Implant surgery was carried out at Hamri Company Limited (Ibaraki, Japan). Briefly, under isoflurane anesthesia (1–5%, Pfizer Japan Inc., Tokyo, Japan), male cynomolgus monkeys (3–5 years old, Hamri Co., Ltd., Ibaraki, Japan) were surgically implanted with radio-telemetry transmitters (TL10M3-D70-EEE, Data Sciences International Inc., St. Paul, MN). EEG leads were stereotaxically positioned in the parietal area and secured to the cranium with stainless-steel screws in contact with the dura. […] Bilateral electromyography (EMG) leads were implanted in the back cervical muscles. After surgery, each monkey was administered penicillin (100,000 units/animal, i.m., Meiji Seika Pharma Co., Ltd., Tokyo, Japan), buprenorphine (0.02 mg/kg, i.m., Otsuka Pharmaceutical Co., Ltd., Tokyo, Japan), and prednisolone (1 mg/kg, subcutaneously [s.c.], Kyoritsu Seiyaku Co., Ltd., Tokyo, Japan) daily for one week.
(§2) TAK-071, 4-fluoro-2-[(3S,4S)-4-hydroxytetrahydro-2H-pyran-3-yl]-5-methyl-6-[4-(1H-pyrazol-1-yl)benzyl]-2,3-dihydro-1H-isoindol-1-one, was synthesized by Takeda Pharmaceutical Company Limited (Kanagawa, Japan). Donepezil hydrochloride and xanomeline oxalate were purchased from Mega Fine Pharma (P) Limited (Mumbai, India) and Metina AB (Lund, Sweden), respectively. […] TAK-071 and donepezil hydrochloride were suspended in 0.5% (w/v) methylcellulose in distilled water and the volume of administration was 2 mL/kg orally (p.o.). […] The doses of compounds correspond to their salt forms. The administration was scheduled according to a 3×3 cross-over design.
(§3) After at least a 1-month recovery period in their home cages, the monkeys were habituated to the recording chamber (acrylic cage, 60 × 55 × 75 [cm^3 width × depth × height]) located in a soundproof, electrically shielded room. Cortical EEG, EMG, and EOG signals were recorded at a sampling rate of 500 Hz using Dataquest ART software (Data Sciences International, New Brighton, MN). The behavioral and postural changes of the animals were observed using a video camera continuously throughout the experiment. The recordings were performed between 9 a.m. and 4 p.m..
(§4) EEG data were analyzed off-line using SleepSign (KISSEI COMTEC Co., Ltd., Nagano, Japan). Digitized EEG signals were high-pass filtered with a 0.75-Hz filter. Spectral power densities for each frequency band were calculated by fast Fourier transform in consecutive 10-s epochs. Epochs containing abnormal EEG, defined by excessive amplitude (> 500 μV), were omitted from data analysis. For analysis of temporal changes in a specific spectral band (1–4 Hz for delta, 4–8 Hz for theta, 8–12 Hz for alpha, 12–30 Hz for beta, 30–80 Hz for gamma), the EEG power of each spectral band was calculated every 15 min. For each animal, the qEEG spectral analyses were performed from 30 to 240 min after treatment because oral and subcutaneous administration of drugs to monkeys can affect the qEEG power spectra. Data obtained in the post-drug period were normalized with those obtained in the baseline period and were calculated as the area under the curve (AUC) between 30 and 210 min after drug administration for quantitative analyses.

M1R = system: M1R; set-up: method as in PMID 30089885; conditions: previous study; cited from earlier work
cynomolgus monkeys [4] = assay: scopolamine-induced qEEG spectral changes (scopolamine challenge paradigm); format: in vivo, cynomolgus monkeys (Macaca fascicularis)
Procedure: as §1, §2, §3, §4

[5] = set-up: method as in PMID 30089885; conditions: rats, TAK-071 0.3 mg/kg; cited from earlier work
monkeys [6] = conditions: cited from earlier work
freely moving rats = system: freely moving rats; set-up: method as in PMID 25181033, PMID 26901596; conditions: cited from earlier work
patients with AD = system: patients with AD; set-up: method as in PMID 14626697; conditions: cited from earlier work
healthy young volunteers = system: healthy young volunteers; set-up: method as in PMID 1375552; conditions: cited from earlier work
healthy subjects = healthy subjects after scopolamine treatment; cited from earlier work
monkeys [7] = system: monkeys; set-up: method as in PMID 17657478, PMID 25491927; conditions: scopolamine 20–50 μg/kg; cited from earlier work
monkeys [8] = conditions: xanomeline 1 mg/kg subcutaneous; cited from earlier work
[9] = TAK-071 3 mg/kg p.o. simultaneously with scopolamine 25 μg/kg s.c., P ≤ 0.05
[10] = donepezil alone, 0.3 and 3 mg/kg p.o.
[11] = donepezil 3 mg/kg p.o. simultaneously with scopolamine 25 μg/kg s.c.
[12] = xanomeline 1 mg/kg s.c. simultaneously with scopolamine 25 μg/kg s.c., not statistically significant

Structure (SMILES): Cc1cc(F)c2[nH]c(=O)n(C3CCN(C4CCOCC4)CC3)c2c1 [GSK1034702]
- brain uptake by PET [1]: good brain uptake

Structure (SMILES): Cc1ccc(Cc2cc3c(=O)n([C@H]4CCCC[C@@H]4O)cnc3c3ccccc23)cn1 [MK-7622]
- alpha power band [2]: reductions
- theta power band [2]: reductions

Structure (SMILES): Cc1c(Cc2ccc(-n3cccn3)cc2)cc2c(c1F)CN([C@H]1COCC[C@@H]1O)C2=O [TAK-071, 4-fluoro-2-[(3S,4S)-4-hydroxytetrahydro-2H-pyran-3-yl]-5-methyl-6-[4-(1H-pyrazol-1-yl)benzyl]-2,3-dihydro-1H-isoindol-1-one]
- scopolamine-induced cognitive deficits (rats): significantly ameliorated
- theta power band of qEEG spectra (cynomolgus monkeys [3]; TAK-071 alone, 1 mg/kg p.o., P ≤ 0.05 vs vehicle): significantly decreased
- delta power band of qEEG spectra (cynomolgus monkeys [3]; TAK-071 alone, 0.3–3 mg/kg p.o.): did not change
- alpha power band of qEEG spectra (cynomolgus monkeys [3]; TAK-071 alone, 1 and 3 mg/kg p.o., P ≤ 0.05 vs vehicle): significantly decreased
- selectivity as M1 PAM (M1R): highly selective M1 PAM
- scopolamine-induced increase in alpha power band (cynomolgus monkeys [4]; TAK-071 1 mg/kg p.o. simultaneously with scopolamine 25 μg/kg s.c., P ≤ 0.05): significantly reduced
- scopolamine-induced increase in alpha power band (cynomolgus monkeys [4]; [9]): significantly suppressed
- scopolamine-induced increase in theta power band (cynomolgus monkeys [4]; [9]): significantly suppressed
- scopolamine-induced increase in delta power band (cynomolgus monkeys [4]; TAK-071 1 and 3 mg/kg p.o. simultaneously with scopolamine 25 μg/kg s.c., no significant effect): a decreasing trend was observed
- maximum plasma concentration [5]: 232 ng/mL

Structure (SMILES): COc1cc2c(cc1OC)C(=O)C(CC1CCN(Cc3ccccc3)CC1)C2 (centres unmarked) [donepezil, Donepezil hydrochloride]
- scopolamine-induced cognitive deficits (monkeys [6]; oral administration of 3 mg/kg donepezil): improved
- scopolamine-induced cognitive deficits (monkeys [6]; oral donepezil 1–3 mg/kg): significantly attenuated
- alpha power band of qEEG spectra (cynomolgus monkeys [3]; donepezil alone, 0.3 mg/kg p.o., dose-dependency not observed): increased
- delta power band of qEEG spectra (cynomolgus monkeys [3]; [10]): did not affect
- theta power band of qEEG spectra (cynomolgus monkeys [3]; [10]): did not affect
- delta power band after treatment with scopolamine (freely moving rats): decreased
- scopolamine-induced increase in alpha power band (cynomolgus monkeys [4]; [11]): tended to be attenuated
- scopolamine-induced increase in theta power band (cynomolgus monkeys [4]; [11]): tended to be attenuated
- scopolamine-induced increase in delta power band (cynomolgus monkeys [4]; donepezil 3 mg/kg p.o. simultaneously with scopolamine 25 μg/kg s.c., P ≤ 0.05 vs scopolamine): significantly suppressed
- alpha activity (patients with AD): increased
- beta activity (patients with AD): increased
- delta activity (patients with AD): significantly decreased

Structure (SMILES): COc1ccc2c3c1O[C@H]1C[C@@H](O)C=C[C@@]31CCN(C)C2 [galantamine]
- theta power band (healthy young volunteers): did not change

Structure (SMILES): CCN(C)C(=O)Oc1cccc([C@H](C)N(C)C)c1 [rivastigmine]
- delta power band after treatment with scopolamine (freely moving rats): decreased

Structure (SMILES): CN1[C@@H]2C[C@@H](OC(=O)[C@H](CO)c3ccccc3)C[C@H]1[C@@H]1O[C@@H]12 [scopolamine, Scopolamine hydrobromide]
- alpha, theta, and delta power bands, dose-dependency (cynomolgus monkeys [3]; scopolamine 25, 50, or 100 μg/kg s.c.): increased alpha, theta, and delta power bands in a dose-dependent manner
- persistence of effects in all power bands after treatment (cynomolgus monkeys [3]; scopolamine 25-100 μg/kg s.c.): 240 min
- alpha power band, resting state (healthy subjects): decrease
- delta power band, resting state (healthy subjects): increase
- cognitive impairment (monkeys [7]): moderately caused cognitive impairment

Structure (SMILES): Nc1c2c(nc3ccccc13)CCCC2 [tacrine]
- delta power band after treatment with scopolamine (freely moving rats): decreased

Structure (SMILES): CCCCCCOc1nsnc1C1=CCCN(C)C1 [xanomeline, xanomeline oxalate]
- scopolamine-induced cognitive deficits (monkeys [6]; intramuscular administration of 0.1 mg/kg xanomeline): improved
- antipsychotic-like activity and sedative effects (monkeys [8]): exhibited antipsychotic-like activity without inducing sedative effects
- scopolamine-induced increase in alpha power band (cynomolgus monkeys [4]; [12]): showed a trend to suppress
- scopolamine-induced increase in delta power band (cynomolgus monkeys [4]; [12]): showed a trend to suppress
- scopolamine-induced increase in theta power band (cynomolgus monkeys [4]; [12]): showed a trend to suppress
